From patent US4175081A, “5-Substituted thiadiazole ureas” (priority 1977, dated 1979)

How the values were obtained:
Turnip (TP) [1] = assay: Post-emergence herbicide test; assay type: in vivo, Brassica sp.; conditions: Brassica rapa, post-emergence, 336 h, two weeks after treatment; for pest or weed control at 4483.4 g/ha: 4 lb/acre
Outline: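 A greenhouse post-emergence herbicide test on turnip. Seeds were sown on the surface of potting soil in 3' plastic pots, lightly covered with screened soil and watered from below. Planting was timed so seedlings had 1 or 2 true leaves above the cotyledons at spraying, done in a hood with a fixed nozzle. Control or injury was scored by eye after two weeks.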

Amaranth pigweed (PW) [2] = assay: Pre-emergence herbicide test; assay type: in vivo, Amaranthus retroflexus; conditions: 336 h, two weeks after treatment; for pest or weed control at 4483.4 g/ha: 4 lb/acre
Outline: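 Visual injury or control ratings were made at two weeks on pre-emergence pots, sub-irrigated in the greenhouse. Seeds were sown a day before a hood spray delivering 8 lbs/acre (or 4 lbs/acre) of compound in 38 gallons per acre.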

[3] = test system: Yellow foxtail grass (YF); assay: Pre-emergence herbicide test; assay type: in vivo, Setaria glauca; conditions: Setaria, 336 h, two weeks after treatment; for pest or weed control at 4483.4 g/ha: 4 lb/acre
Outline: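 Visual rating of injury/control made two weeks after a pre-emergence spray of 8 or 4 lbs active per acre (38 gal/acre) onto pots seeded the previous day. Greenhouse watering by sub-irrigation only.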

Corn (CN) [4] = assay: Post-emergence herbicide test; assay type: in vivo; conditions: Zea mays, 336 h, two weeks after treatment; for pest or weed control at 4483.4 g/ha: 4 lb/acre
Outline: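 Greenhouse seedlings grown in potting soil and sprayed post-emergence at 8 lbs compound/acre (formulations also made for 4 lbs/acre) in 38 gallons/acre spray volume. Watering by sub-irrigation only. Injury or control rated visually two weeks after treatment.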

Johnson grass (JG) [5] = assay: Post-emergence herbicide test; assay type: in vivo, Sorgum helepense; conditions: Sorghum halepense, 336 h, two weeks after treatment; for pest or weed control at 4483.4 g/ha: 4 lb/acre
Outline: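 Visual injury or control scores taken 2 weeks after a post-emergence spray of pot-grown plants. Application was 8 lbs/acre (or 4 lbs/acre) in 38 gal/acre. Plants were held in the greenhouse with sub-irrigation only.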

Barnyard grass (BG) [6] = assay: Post-emergence herbicide test; assay type: in vivo; conditions: Echinochloa crus-galli, 336 h, two weeks after treatment; for pest or weed control at 4483.4 g/ha: 4 lb/acre
Outline: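 Greenhouse pot-grown barnyard grass seedlings sprayed post-emergence at 8 lbs active compound per acre (some at 4 lbs/acre) in 38 gallons per acre, then sub-irrigated. Injury or control rated visually two weeks after treatment.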

Bean (BN) [7] = assay: Post-emergence herbicide test; assay type: in vivo, Phaseolus vulgaris var. Black Valentine; conditions: Phaseolus vulgaris, post-emergence, 336 h, two weeks after treatment; for pest or weed control at 4483.4 g/ha: 4 lb/acre
Outline: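 Bean seedlings (Phaseolus vulgaris var. Black Valentine) were grown in potting soil in 3' pots until the primary leaves expanded. They were then sprayed under a hood with a removable belt and fixed nozzle, using 50 ml formulations. Afterward they were returned to the greenhouse and watered only by sub-irrigation. Percent control was judged visually two weeks after treatment.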

Turnip (TP) [8] = assay: Pre-emergence herbicide test; assay type: in vivo, Brassica sp.; conditions: Brassica rapa, pre-emergence, 336 h, two weeks after treatment; for pest or weed control at 4483.4 g/ha: 4 lb/acre
Outline: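 In this pre-emergence greenhouse test, turnip was seeded on the surface of potting soil in 3' plastic pots, lightly covered with screened soil, and watered from below. One day later the pots were sprayed in a belt-fed spray hood. Watering continued only by sub-irrigation, and percent control was visually scored two weeks after treatment.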

Johnson grass (JG) [9] = assay: Pre-emergence herbicide test; assay type: in vivo, Sorgum helepense; conditions: Sorghum halepense, 336 h, two weeks after treatment; for pest or weed control at 4483.4 g/ha: 4 lb/acre
Outline: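 Visual injury or control rating two weeks post-treatment, after pre-emergence spray of 8 or 4 lbs active per acre (38 gal/acre) onto pots sown the previous day. Greenhouse watering by sub-irrigation only.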

Crabgrass (CG) [10] = assay: Pre-emergence herbicide test; assay type: in vivo, Digitaria sanquinalis; conditions: Digitaria sanguinalis, pre-emergence, 336 h, two weeks after treatment; for pest or weed control at 4483.4 g/ha: 4 lb/acre
Outline: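 Crabgrass (Digitaria sanquinalis) was surface seeded in 3' plastic pots of potting soil, covered with screened soil, and watered by sub-irrigation in greenhouse trays. Pots were seeded one day before spraying in a hood with a moving belt and fixed nozzle. Plants stayed in the greenhouse on sub-irrigation, and pre-emergence control was rated visually two weeks after treatment.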

Crabgrass (CG) [11] = assay: Post-emergence herbicide test; assay type: in vivo, Digitaria sanquinalis; conditions: Digitaria sanguinalis, post-emergence, 336 h, two weeks after treatment; for pest or weed control at 4483.4 g/ha: 4 lb/acre
Outline: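 Crabgrass (Digitaria sanquinalis) was surface seeded individually in 3' plastic pots of potting soil, covered with screened soil, and watered by sub-irrigation in greenhouse trays. Planting was staggered so seedlings reached the target stage together. Post-emergence sprays were applied in a hood with a removable belt and fixed nozzle, and control was visually rated two weeks after treatment.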

Barnyard grass (BG) [12] = assay: Pre-emergence herbicide test; assay type: in vivo; conditions: Echinochloa crus-galli, 336 h, two weeks after treatment; for pest or weed control at 4483.4 g/ha: 4 lb/acre
Outline: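 Greenhouse pre-emergence spray test: pots seeded one day before treatment received compound at rates of 8 or 4 lb/acre (38 gal/acre). Visual injury/control scores for Echinochloa crus-galli taken at two weeks, with watering by sub-irrigation only.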

Corn (CN) [13] = assay: Pre-emergence herbicide test; assay type: in vivo; conditions: Zea mays, 336 h, two weeks after treatment; for pest or weed control at 4483.4 g/ha: 4 lb/acre
Outline: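 Visual injury/control ratings were made 2 weeks post-spray on corn pots seeded (4 seeds, seed-diameter depth) the day before treatment. Application was a belt-hood spray of 38 gal/acre delivering 8 lbs active per acre, with a 4 lbs/acre rate also formulated. Watering was by sub-irrigation throughout.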

[14] = test system: Yellow foxtail grass (YF); assay: Post-emergence herbicide test; assay type: in vivo, Setaria glauca; conditions: Setaria, 336 h, two weeks after treatment; for pest or weed control at 4483.4 g/ha: 4 lb/acre
Outline: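 Visual rating of injury/control made 2 weeks post-spray. Seedlings at a uniform growth stage in soil-filled pots received a hood spray of 8 lbs/acre active compound, 38 gallons/acre volume, with a 4 lbs/acre rate also formulated. Watering was by sub-irrigation only.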

Cotton (CT) [15] = assay: Post-emergence herbicide test; assay type: in vivo, Gossypium hirsutum var. DPL smooth leaf; conditions: Gossypium hirsutum, post-emergence, 336 h, two weeks after treatment; for pest or weed control at 4483.4 g/ha: 4 lb/acre
Outline: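 This greenhouse post-emergence test measured how well spray treatments controlled cotton. Seedlings of Gossypium hirsutum var. DPL smooth leaf, with expanded cotyledons and a first true leaf 1' in length, were sprayed with 50 ml formulations in a belt-fed spray hood. They were then returned to the greenhouse and watered only by sub-irrigation. Injury was scored visually as % control after two weeks.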

Cotton (CT) [16] = assay: Pre-emergence herbicide test; assay type: in vivo, Gossypium hirsutum var. DPL smooth leaf; conditions: Gossypium hirsutum, 336 h, two weeks after treatment; for pest or weed control at 4483.4 g/ha: 4 lb/acre
Outline: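 Visual injury/control ratings were taken at two weeks post-spray. Pots seeded a day earlier received compound pre-emergence at 8 lbs/acre, or 4 lbs/acre, in a 38 gallon/acre spray volume, and were then held in the greenhouse, watered only from below.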

Bean (BN) [17] = assay: Pre-emergence herbicide test; assay type: in vivo, Phaseolus vulgaris var. Black Valentine; conditions: Phaseolus vulgaris, 336 h, two weeks after treatment; for pest or weed control at 4483.4 g/ha: 4 lb/acre
Outline: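 Visual injury/control ratings were taken two weeks post-spray on sub-irrigated Phaseolus vulgaris var. Black Valentine. Pots were sown a day before treatment. Pre-emergence spray delivered 8 lbs actual compound per acre (or 4 lbs/acre) at 38 gallons per acre.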

Amaranth pigweed (PW) [18] = assay: Post-emergence herbicide test; assay type: in vivo, Amaranthus retroflexus; conditions: 336 h, two weeks after treatment; for pest or weed control at 4483.4 g/ha: 4 lb/acre
Outline: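 Visual injury or control ratings were made two weeks after spraying, with greenhouse watering by sub-irrigation only. Treatment was post-emergence, when pigweed seedlings had 1 or 2 true leaves, at 8 lbs active compound per acre (4 lbs/acre formulations also made) in a 38 gallons-per-acre spray volume.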

## CNC(=O)N(C)c1nnc(C(C)(C)C)s1 [Example 42]
Turnip (TP) [1]; 2 lb/acre
  pest or weed control at 2241.7 g/ha: 100%
Turnip (TP) [1]
  pest or weed control at 4483.4 g/ha: 100%
Turnip (TP) [1]; 8 lb/acre
  pest or weed control at 8966.8 g/ha: 100%
Amaranth pigweed (PW) [2]; 2 lb/acre
  pest or weed control at 2241.7 g/ha: 100%
Amaranth pigweed (PW) [2]
  pest or weed control at 4483.4 g/ha: 100%
Amaranth pigweed (PW) [2]; 8 lb/acre
  pest or weed control at 8966.8 g/ha: 100%
[3]; 2 lb/acre
  pest or weed control at 2241.7 g/ha: 90%
[3]
  pest or weed control at 4483.4 g/ha: 80%
[3]; 8 lb/acre
  pest or weed control at 8966.8 g/ha: 90%
Corn (CN) [4]; 2 lb/acre
  pest or weed control: 70%
Corn (CN) [4]
  pest or weed control at 4483.4 g/ha: 70%
Corn (CN) [4]; 8 lb/acre
  pest or weed control at 8966.8 g/ha: 100%
Johnson grass (JG) [5]; 2 lb/acre
  pest or weed control: 70%
Johnson grass (JG) [5]
  pest or weed control at 4483.4 g/ha: 90%
Johnson grass (JG) [5]; 8 lb/acre
  pest or weed control at 8966.8 g/ha: 100%
Barnyard grass (BG) [6]; 2 lb/acre
  pest or weed control at 2241.7 g/ha: 90%
Barnyard grass (BG) [6]
  pest or weed control at 4483.4 g/ha: 90%
Barnyard grass (BG) [6]; 8 lb/acre
  pest or weed control at 8966.8 g/ha: 100%
Bean (BN) [7]; 2 lb/acre
  pest or weed control at 2241.7 g/ha: 80%
Bean (BN) [7]
  pest or weed control at 4483.4 g/ha: 100%
Bean (BN) [7]; 8 lb/acre
  pest or weed control at 8966.8 g/ha: 100%
Turnip (TP) [8]; 2 lb/acre
  pest or weed control at 2241.7 g/ha: 100%
Turnip (TP) [8]
  pest or weed control at 4483.4 g/ha: 90%
Turnip (TP) [8]; 8 lb/acre
  pest or weed control at 8966.8 g/ha: 100%
Johnson grass (JG) [9]; 2 lb/acre
  pest or weed control at 2241.7 g/ha: 70%
Johnson grass (JG) [9]
  pest or weed control at 4483.4 g/ha: 90%
Johnson grass (JG) [9]; 8 lb/acre
  pest or weed control at 8966.8 g/ha: 100%
Crabgrass (CG) [10]; 2 lb/acre
  pest or weed control: 90%
Crabgrass (CG) [10]
  pest or weed control at 4483.4 g/ha: 90%
Crabgrass (CG) [10]; 8 lb/acre
  pest or weed control at 8966.8 g/ha: 90%
Crabgrass (CG) [11]; 2 lb/acre
  pest or weed control: 40%
Crabgrass (CG) [11]
  pest or weed control at 4483.4 g/ha: 70%
Crabgrass (CG) [11]; 8 lb/acre
  pest or weed control at 8966.8 g/ha: 100%
Barnyard grass (BG) [12]; 2 lb/acre
  pest or weed control at 2241.7 g/ha: 80%
Barnyard grass (BG) [12]
  pest or weed control at 4483.4 g/ha: 90%
Barnyard grass (BG) [12]; 8 lb/acre
  pest or weed control at 8966.8 g/ha: 90%
Corn (CN) [13]; 2 lb/acre
  pest or weed control at 2241.7 g/ha: 0%
Corn (CN) [13]
  pest or weed control at 4483.4 g/ha: 60%
Corn (CN) [13]; 8 lb/acre
  pest or weed control at 8966.8 g/ha: 90%
[14]; 2 lb/acre
  pest or weed control: 90%
[14]
  pest or weed control at 4483.4 g/ha: 90%
[14]; 8 lb/acre
  pest or weed control at 8966.8 g/ha: 100%
Cotton (CT) [15]; 2 lb/acre
  pest or weed control at 2241.7 g/ha: 100%
Cotton (CT) [15]
  pest or weed control at 4483.4 g/ha: 100%
Cotton (CT) [15]; 8 lb/acre
  pest or weed control at 8966.8 g/ha: 100%
Cotton (CT) [16]; 2 lb/acre
  pest or weed control at 2241.7 g/ha: 30%
Cotton (CT) [16]
  pest or weed control at 4483.4 g/ha: 70%
Cotton (CT) [16]; 8 lb/acre
  pest or weed control at 8966.8 g/ha: 90%
Bean (BN) [17]; 2 lb/acre
  pest or weed control at 2241.7 g/ha: 40%
Bean (BN) [17]
  pest or weed control at 4483.4 g/ha: 90%
Bean (BN) [17]; 8 lb/acre
  pest or weed control at 8966.8 g/ha: 100%
Amaranth pigweed (PW) [18]; 2 lb/acre
  pest or weed control at 2241.7 g/ha: 100%
Amaranth pigweed (PW) [18]
  pest or weed control at 4483.4 g/ha: 100%
Amaranth pigweed (PW) [18]; 8 lb/acre
  pest or weed control at 8966.8 g/ha: 100%

## CN(C)C(=O)N(C)c1nnc(C(C)(C)C)s1 [Example 43]
Turnip (TP) [1]
  pest or weed control at 4483.4 g/ha: 100%
Amaranth pigweed (PW) [2]
  pest or weed control at 4483.4 g/ha: 100%
[3]
  pest or weed control at 4483.4 g/ha: 100%
Corn (CN) [4]
  pest or weed control at 4483.4 g/ha: 100%
Johnson grass (JG) [5]
  pest or weed control at 4483.4 g/ha: 100%
Barnyard grass (BG) [6]
  pest or weed control at 4483.4 g/ha: 100%
Bean (BN) [7]
  pest or weed control at 4483.4 g/ha: 100%
Turnip (TP) [8]
  pest or weed control at 4483.4 g/ha: 100%
Johnson grass (JG) [9]
  pest or weed control at 4483.4 g/ha: 90%
Crabgrass (CG) [10]
  pest or weed control at 4483.4 g/ha: 100%
Crabgrass (CG) [11]
  pest or weed control at 4483.4 g/ha: 100%
Barnyard grass (BG) [12]
  pest or weed control at 4483.4 g/ha: 100%
Corn (CN) [13]
  pest or weed control at 4483.4 g/ha: 90%
[14]
  pest or weed control at 4483.4 g/ha: 100%
Cotton (CT) [15]
  pest or weed control at 4483.4 g/ha: 100%
Cotton (CT) [16]
  pest or weed control at 4483.4 g/ha: 90%
Bean (BN) [17]
  pest or weed control at 4483.4 g/ha: 90%
Amaranth pigweed (PW) [18]
  pest or weed control at 4483.4 g/ha: 100%
